Results taken from PubChem BioAssay (NCI).
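Assay format: 96-well plates, 48-hour exposure. The concentration for full growth arrest is given as TGI.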

Key:
Test in all cases: NCI anticancer screen, dose series, 48 h
[1] = tested on: SF-268 CNS
[2] = tested on: DU-145 prostate
[3] = tested on: SK-MEL-5 melanoma
[4] = tested on: SF-295 CNS
[5] = tested on: SF-539 CNS
[6] = tested on: U251 CNS
[7] = tested on: SNB-75 CNS
[8] = tested on: HCT-15 colon
[9] = tested on: NCI/ADR-RES ovarian
[10] = tested on: LOX IMVI melanoma
[11] = tested on: MALME-3M melanoma
[12] = tested on: RPMI-8226 leukemia
[13] = tested on: EKVX NSCLC
[14] = tested on: T-47D breast
[15] = tested on: CAKI-1 renal
[16] = tested on: MDA-MB-231 breast
[17] = tested on: HT29 colon
[18] = tested on: ACHN renal
[19] = tested on: HCC-2998 colon
[20] = tested on: K-562 leukemia

SMILES	TGI [1]	TGI [2]	TGI [3]	TGI [4]	TGI [5]	TGI [6]	TGI [7]	TGI [8]	TGI [9]	TGI [10]	TGI [11]	TGI [12]	TGI [13]	TGI [14]	TGI [15]	TGI [16]	TGI [17]	TGI [18]	TGI [19]	TGI [20]
CC1(C)N/C(=C\[N+](=O)[O-])C(C)(C)N1O	> 10 µM	> 10 µM	> 10 µM	> 10 µM	> 10 µM	> 10 µM	> 10 µM	> 10 µM	> 10 µM	> 10 µM	> 10 µM	> 10 µM	> 10 µM	> 10 µM	> 10 µM	> 10 µM	> 10 µM	> 10 µM	> 10 µM	–
CS(=O)(=O)C(C#N)c1nc2ccccc2nc1Cl (stereo not drawn)	> 100 µM	> 100 µM	> 27.1 µM	> 100 µM	> 65.9 µM	> 100 µM	> 100 µM	> 100 µM	> 100 µM	> 100 µM	> 100 µM	> 100 µM	> 100 µM	> 100 µM	> 100 µM	> 100 µM	> 100 µM	> 100 µM	> 100 µM	> 100 µM
CSc1c(C(=O)Nc2ccccc2)c(N)n(N)c(=O)c1C#N	> 100 µM	> 100 µM	> 100 µM	–	> 100 µM	> 100 µM	> 100 µM	> 100 µM	> 100 µM	> 100 µM	> 100 µM	> 100 µM	> 100 µM	> 100 µM	> 100 µM	> 100 µM	> 100 µM	–	> 100 µM	> 100 µM
CCCCCCNCCc1cnc[nH]1	> 100 µM	> 100 µM	> 100 µM	> 100 µM	> 100 µM	> 100 µM	> 100 µM	> 100 µM	> 100 µM	> 100 µM	> 100 µM	> 100 µM	> 100 µM	> 100 µM	> 100 µM	> 100 µM	> 100 µM	> 100 µM	> 100 µM	> 100 µM
Nn1c(C23CC4CC(CC(C4)C2)C3)n[nH]c1=S	> 100 µM	> 100 µM	> 100 µM	> 100 µM	> 100 µM	> 100 µM	> 100 µM	> 100 µM	> 100 µM	> 100 µM	> 100 µM	> 100 µM	> 100 µM	> 100 µM	> 100 µM	> 100 µM	> 100 µM	> 100 µM	> 100 µM	> 100 µM
O=C1C2=Cc3ccccc3OC2(O)Oc2cc3ccccc3cc21 (stereo not drawn)	> 100 µM	> 100 µM	> 100 µM	> 100 µM	79.2 µM	> 100 µM	73.2 µM	> 100 µM	> 100 µM	> 100 µM	> 100 µM	> 100 µM	> 100 µM	> 100 µM	> 100 µM	> 100 µM	> 100 µM	> 100 µM	74.9 µM	> 100 µM
CCOC(=O)/C=C(\C(=O)OCC)n1cc(C)c(=O)n(Cc2cn(CCCCOC(C)=O)nn2)c1=O	28.4 µM	37.2 µM	> 53.1 µM	35.5 µM	5.17 µM	37 µM	30.3 µM	> 44.2 µM	57 µM	23.1 µM	4.16 µM	21.7 µM	24.2 µM	> 47.5 µM	10.4 µM	34.6 µM	21.1 µM	11.1 µM	34 µM	9.01 µM
NC(N)=NS(=O)(=O)c1ccc(NNc2c3ccccc3nc3ccccc23)cc1	34 µM	21.3 µM	22.3 µM	73 µM	36.7 µM	24.2 µM	50.3 µM	> 100 µM	90.7 µM	18.2 µM	32.8 µM	44.9 µM	34.3 µM	41.9 µM	55.1 µM	37 µM	27.2 µM	23.1 µM	27.3 µM	30.9 µM
COc1ccc(/C=C2\N=C(N3CCCCC3)NC2=O)cc1	> 100 µM	> 100 µM	–	> 100 µM	> 100 µM	> 100 µM	> 100 µM	> 100 µM	> 100 µM	> 100 µM	> 100 µM	> 100 µM	> 100 µM	> 100 µM	> 100 µM	> 100 µM	> 100 µM	> 100 µM	> 100 µM	–
O=C1NC(=S)N/C1=C\c1cccs1	> 100 µM	> 100 µM	> 100 µM	> 100 µM	> 100 µM	> 100 µM	> 100 µM	> 100 µM	> 100 µM	> 100 µM	> 100 µM	> 100 µM	> 100 µM	> 100 µM	> 100 µM	> 100 µM	> 100 µM	–	> 100 µM	> 100 µM
C=CC[C@]1(/C=N/O)CN(S(=O)(=O)CC[Si](C)(C)C)C[C@H]2CC=CC[C@H]21	> 100 µM	46.9 µM	> 100 µM	31 µM	32.8 µM	32.2 µM	54.2 µM	> 100 µM	> 100 µM	40.4 µM	40.4 µM	31.8 µM	58.5 µM	> 100 µM	42.8 µM	44.2 µM	30.8 µM	–	31.9 µM	67.5 µM
